Assay [1] concerns the target Serine/threonine-protein kinase mTOR (Homo sapiens, UniProt P42345). Put plainly: Inhibition of mTOR in human MDA-MB-468 cells assessed as reduction in AKT protein level at 0.5 to 2 uM after 24 hrs by Western blot analysis. The assay is classed as cell-based. As to conditions: dose 0.5-2 µM.
Assay [2] relates to MDA-MB-231. Put plainly: Induction of apoptosis in human MDA-MB-231 cells assessed as late apoptotic cells at 5 uM after 24 hrs by AnnexinV-FITC/PI staining based flow cytometry analysis (reference value: 0.84%). The assay is classed as functional. (A flow cytometer gives signals particle by particle.)
For assay [3], the system named is MDA-MB-231. Put plainly: Induction of apoptosis in human MDA-MB-231 cells assessed as late apoptotic cells at 10 uM after 24 hrs by AnnexinV-FITC/PI staining based flow cytometry analysis (reference value: 0.84 to 1.59%). The format is functional.
Assay [4] deals with MDA-MB-468. Put plainly: Induction of apoptosis in human MDA-MB-468 cells assessed as viable cells at 2.5 uM after 24 hrs by AnnexinV-FITC/PI staining based flow cytometry analysis (reference value: 95.1%). The format is functional. The conditions noted are these: read-out: Activity.
Assay [5] has as its system MDA-MB-468. Put plainly: Induction of apoptosis in human MDA-MB-468 cells assessed as late apoptic cells at 2.5 uM after 24 hrs by AnnexinV-FITC/PI staining based flow cytometry analysis (reference value: 2.84%). The assay is classed as functional.
The subject of assay [6] is MDA-MB-468. Nature of the assay: cells. The conditions noted are these: Homo sapiens, MDA-MB-468, 24 h.
Description: Antiproliferative activity against human MDA-MB-468 cells assessed as reduction in cell viability incubated for 24 hrs by MTT assay

Molecules are shown by their SMILES. Activity calls are given as the source filed them. The rule behind the calls is not given here.

On to `C/C(=N\NC(=O)c1cccc(Br)c1)c1ccc(C(=O)Nc2nc3ccccc3[nH]2)cc1`, for which, in assay [1], the inhibition result was “Active”. In addition, the Activity amounted to 2.3% with MDA-MB-231 [2], 5.71% with MDA-MB-231 [3] and 4.96% in the assay with MDA-MB-468 [5]. In addition, in the assay with MDA-MB-468 [4], the viability at 2.5 µM amounted to 89.8%. Half-maximal inhibition with MDA-MB-468 [6] (IC50) was put at 4.3 µM.

One may read the IC50 as the point on the concentration scale where inhibition reaches its midpoint. The low end stands for greater potency, the high end for weaker potency.

Values taken from ChEMBL document CHEMBL4819087, “Identification and optimization of 3-bromo-N'-(4-hydroxybenzylidene)-4-methylbenzohydrazide derivatives as mTOR inhibitors that induce autophagic cell death and apoptosis in triple-negative breast cancer” (Eur J Med Chem, 2021).
